The test system of experiment [1] is IMR32 neuroblastoma cells overexpressing C99-YFP. Description: Western blotting of IMR32 cells overexpressing C99-YFP. In kind it is cell-based, human. Particulars: compound 1 μM, 37° C., 24 h. On the procedure:
(A) IMR32 cells overexpressing C99-YFP were grown with 2 ml fresh culture medium in 6-well plates, and treated with 1 μM CL-387,785 or DAPT at 37° C. for 24 h. The cell extracts were analyzed by Western blotting. (B) Conditional media were harvested and processed for determination of secreted Aβ40 using a colorimetric Aβ40-specific ELISA kit. (C) C99-YFP-expressing IMR32 cells (160,000 cells/well) were seeded onto 6-well plates and cultured at 37° C. for 24 h, and infected with ErbB1- or ErbB2-targeting shRNA lentivirus for an additional 48 h. Infection mixtures were replaced with 2 ml fresh culture medium, and infected cells were then incubated at 37° C. for an additional 24 h. The cell extracts were analyzed by Western blotting with anti-GFP antibody. (D) The conditioned media were harvested and processed for determination of secreted Aβ40. Data are the mean±SD from three independent experiments, and were analyzed by Student's t-tests. * p<0.05. […]
Preparation of cell extracts. […] Following the removal of cell debris by centrifugation, clarified lysates were processed for immunoprecipitation, Western blotting, or quantification of BCA protein content.
Western blotting analysis. Protein concentration was measured with the BCA Protein Assay Kit (Pierce). […] Quantitative analyses of blot images were processed using Image J software (NIH) to determine the relative densities of immunoreactive bands.
For orientation: Immunoblotting shows a protein as a band on a membrane.

In experiment [2] the test system is APPswe/PS1ΔE9 double transgenic mice. Description: Co-immunoprecipitation (anti-BECN1) of brain lysates of treated APPswe/PS1ΔE9 mice. It counts as in vivo, mouse.

Each structure is given as a SMILES string.

With `CC#CC(=O)Nc1ccc2ncnc(Nc3cccc(Br)c3)c2c1` [CL-387,785, N-[4-[(3-bromophenyl)amino]-6-quinazolinyl]-2-butynamide], in experiment [1], the “level of AICD” value was “significantly reduced” and the “level of C99” value is reported as “significantly reduced”. Moreover, in experiment [2] (5 mg/kg daily oral, 20 days), the “phosphorylation of EGFR(ErbB1) in brain” value is given as “inhibited”. In experiment [2] (5 mg/kg daily oral, 20 days, co-immunoprecipitation), the “interaction between ErbB2 with Beclin-1 in brain” value is given as “drastically suppressed”. The “formation of the Beclin1-Vps34-Vps15 complex” value in experiment [2] (summary statement for the compound (FIG. 7)) was “rescues the formation”.

(Values after patent US10576082B2, “ErbB2 regulates autophagic flux to modulate the proteostasis of APP-CTFs in alzheimer's disease” (Academia Sinica, priority 2016, dated 2020).)
